The values that follow come from PMC8224972, “Thiazide and other Cl-benzenesulfonamide-bearing clinical drug affinities for human carbonic anhydrases” (PLoS ONE, 2021).

Where two headings read alike, the source gives them in different places.

Experiment [1] has as its target CA XIII. As to conditions: murine protein, literature value; read-out: Literature Ki or Kd, CA XIII; cited from earlier work.
In experiment [2] the target is T1, CA III (Homo sapiens, UniProt P07451). Details: made in house. As to conditions: literature value; read-out: Literature Ki or Kd, CA III; cited from earlier work.
T1 sequence (P07451 whole entry): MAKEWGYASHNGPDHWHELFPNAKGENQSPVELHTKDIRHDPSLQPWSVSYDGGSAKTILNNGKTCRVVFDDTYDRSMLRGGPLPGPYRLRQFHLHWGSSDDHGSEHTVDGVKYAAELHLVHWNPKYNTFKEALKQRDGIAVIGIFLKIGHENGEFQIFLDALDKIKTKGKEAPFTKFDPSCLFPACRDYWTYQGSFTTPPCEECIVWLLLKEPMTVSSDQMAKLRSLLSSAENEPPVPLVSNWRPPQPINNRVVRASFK
In another experiment the target is CA I (Homo sapiens, UniProt P00915). Kind of experiment: Fluorescence-based thermal shift assay (FTSA).
Sequence of CA I (P00915 whole entry): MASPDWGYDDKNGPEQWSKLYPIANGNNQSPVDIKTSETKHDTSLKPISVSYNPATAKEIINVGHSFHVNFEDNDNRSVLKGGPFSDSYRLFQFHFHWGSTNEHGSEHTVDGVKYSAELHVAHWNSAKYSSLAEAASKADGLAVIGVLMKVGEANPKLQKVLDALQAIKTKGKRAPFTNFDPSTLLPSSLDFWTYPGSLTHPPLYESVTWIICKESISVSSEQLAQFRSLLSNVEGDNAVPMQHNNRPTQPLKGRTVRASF
Experiment [3] addresses T2, CA II (Homo sapiens, UniProt P00918). Kind of experiment: Fluorescence-based thermal shift assay (FTSA). Particulars: for Binding to CA II in words: FTSA.
Experimental: (§1) This assay quantifies protein melting temperatures (Tm) at various concentrations of the added compound. Protein unfolding is monitored by detecting the fluorescence of the solvatochromic dye 8-anilino-1-naphtalensulfonate (ANS), whose fluorescence increases upon protein unfolding [15–17]. Dependence of the protein Tm on ligand concentration was used to determine the dissociation constant Kd. In this study, FTSA samples contained 5–20 μM protein, 50 μM ANS, 0–300 μM compound in 50 mM sodium phosphate or 25 mM Hepes buffer containing 50 mM NaCl, pH 7.5, and 2% (v/v) DMSO. Experiments were performed in Corbett Rotor-Gene 6000 instrument. […] The heating rate of 1°/min was applied.
(§2) The experiments were repeated at least twice, and averages are listed.
The target in experiment [4] is T1, CA III. The experiment is described as follows: Fluorescence-based thermal shift assay (FTSA).
Experimental: as §1, §2
Experiment [5] addresses T3, CA IV (Homo sapiens, UniProt P22748). The experiment is described as follows: Fluorescence-based thermal shift assay (FTSA).
Experimental: as §1, §2
For a further experiment, the target named is CA VA (Homo sapiens, UniProt P35218). The experiment is described as follows: Fluorescence-based thermal shift assay (FTSA).
Sequence of CA VA (P35218 39-305): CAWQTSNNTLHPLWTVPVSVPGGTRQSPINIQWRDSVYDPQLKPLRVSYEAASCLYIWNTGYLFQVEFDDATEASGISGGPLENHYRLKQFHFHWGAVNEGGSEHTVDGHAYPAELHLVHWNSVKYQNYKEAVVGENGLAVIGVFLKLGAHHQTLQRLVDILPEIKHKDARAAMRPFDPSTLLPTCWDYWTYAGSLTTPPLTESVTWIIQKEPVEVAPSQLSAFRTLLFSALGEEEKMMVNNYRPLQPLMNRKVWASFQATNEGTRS
The target in the next experiment is CA VB (Homo sapiens, UniProt Q9Y2D0). Kind of experiment: Fluorescence-based thermal shift assay (FTSA).
Sequence of CA VB (Q9Y2D0 34-317): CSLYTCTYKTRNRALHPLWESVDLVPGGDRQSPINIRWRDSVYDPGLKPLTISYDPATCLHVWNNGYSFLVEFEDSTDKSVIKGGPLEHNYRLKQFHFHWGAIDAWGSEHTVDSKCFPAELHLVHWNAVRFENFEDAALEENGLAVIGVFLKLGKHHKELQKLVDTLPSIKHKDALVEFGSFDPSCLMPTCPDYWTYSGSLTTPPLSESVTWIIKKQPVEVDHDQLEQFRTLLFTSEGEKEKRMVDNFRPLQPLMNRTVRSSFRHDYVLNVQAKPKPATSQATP
In another experiment the target is CA VI (Homo sapiens, UniProt P23280). Kind of experiment: Fluorescence-based thermal shift assay (FTSA).
Sequence of CA VI (P23280 18-308): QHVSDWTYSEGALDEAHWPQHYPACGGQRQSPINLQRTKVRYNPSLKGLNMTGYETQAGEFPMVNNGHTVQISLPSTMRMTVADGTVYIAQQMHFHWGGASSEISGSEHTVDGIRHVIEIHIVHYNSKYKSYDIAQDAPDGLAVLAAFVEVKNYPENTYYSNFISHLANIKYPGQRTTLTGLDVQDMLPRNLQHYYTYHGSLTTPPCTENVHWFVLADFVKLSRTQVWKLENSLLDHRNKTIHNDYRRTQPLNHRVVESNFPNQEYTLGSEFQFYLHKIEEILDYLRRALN
The target of the next experiment is CA VII (Homo sapiens, UniProt P43166). The experiment is described as follows: Fluorescence-based thermal shift assay (FTSA).
Sequence of CA VII (P43166 whole entry): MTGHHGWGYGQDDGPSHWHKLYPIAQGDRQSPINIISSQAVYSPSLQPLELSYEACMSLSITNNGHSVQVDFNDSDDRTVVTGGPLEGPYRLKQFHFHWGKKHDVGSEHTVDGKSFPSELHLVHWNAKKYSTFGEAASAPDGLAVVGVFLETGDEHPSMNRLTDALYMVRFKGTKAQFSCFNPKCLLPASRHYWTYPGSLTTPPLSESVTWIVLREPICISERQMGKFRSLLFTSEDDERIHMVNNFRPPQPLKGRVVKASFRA
A further experiment addresses CA IX (Homo sapiens, UniProt Q16790). The experiment is described as follows: Fluorescence-based thermal shift assay (FTSA).
In the next experiment the target is CA XII (Homo sapiens, UniProt O43570). Kind of experiment: Fluorescence-based thermal shift assay (FTSA).
Sequence of CA XII (O43570 25-354): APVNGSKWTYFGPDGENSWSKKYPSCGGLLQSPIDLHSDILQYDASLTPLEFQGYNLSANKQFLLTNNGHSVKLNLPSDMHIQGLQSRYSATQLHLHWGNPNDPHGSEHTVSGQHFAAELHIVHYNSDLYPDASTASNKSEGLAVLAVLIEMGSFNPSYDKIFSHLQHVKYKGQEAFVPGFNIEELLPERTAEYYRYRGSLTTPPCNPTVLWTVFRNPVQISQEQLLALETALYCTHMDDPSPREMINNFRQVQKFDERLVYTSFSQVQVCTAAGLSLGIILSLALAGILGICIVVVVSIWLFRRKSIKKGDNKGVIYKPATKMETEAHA
Experiment [6] addresses CA XIII (Homo sapiens, UniProt Q8N1Q1). The experiment is described as follows: Fluorescence-based thermal shift assay (FTSA).
Experimental: as §1, §2
The target of a further experiment is CA XIV (Homo sapiens, UniProt Q9ULX7). The experiment is described as follows: Fluorescence-based thermal shift assay (FTSA).
Sequence of CA XIV (Q9ULX7 16-337): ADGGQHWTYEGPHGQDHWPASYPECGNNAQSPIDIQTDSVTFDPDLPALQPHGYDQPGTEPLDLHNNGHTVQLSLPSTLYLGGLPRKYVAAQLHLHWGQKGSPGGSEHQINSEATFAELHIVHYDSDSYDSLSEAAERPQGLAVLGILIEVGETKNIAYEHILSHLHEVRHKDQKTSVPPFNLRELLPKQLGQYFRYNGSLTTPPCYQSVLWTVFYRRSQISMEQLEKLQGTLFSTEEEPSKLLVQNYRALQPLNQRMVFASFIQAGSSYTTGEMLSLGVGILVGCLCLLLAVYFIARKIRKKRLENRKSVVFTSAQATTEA
In a further experiment the test system is human CA isoforms. The experiment is described as follows: FTSA, summary over several CA isoforms. The format is binding.
In another experiment the target is CA. Set-up: method as in doi:10.1016/S0223-5234(97)89083-6. Particulars: CA isoform not identified; cited from earlier work.
Experiment [7] addresses T2, CA II. Set-up: made in house. Particulars: literature value; read-out: Literature Ki or Kd, CA II; cited from earlier work.
For experiment [8], the system named is TSC (thiazide sensitive co-transporter). Set-up: method as in PMID 10894798. Particulars: in the presence of 2 mM Cl-; cited from earlier work.
The target of experiment [9] is T2, CA II. Kind of experiment: Stopped-flow CO2 hydration activity assay (SFA). The format is biochemical. Set-up: made in house. As to conditions: 25°C, pH 7.5, 20 nM CA II, Morrison equation; read-out: Affinity (Kd) by SFA, CA II.
Experimental: (§3) The inhibition of CA enzymatic activity by the compounds was measured by the stopped-flow CO2 hydration enzymatic activity assay (SFA) [20]. […] The IC50 measured by SFA were compared to the affinities obtained by FTSA.
(§4) The CO2 spontaneously hydrates in an aqueous solution and the pH decreases. […] The saturated CO2 solution was prepared by bubbling the CO2 gas in MilliQ water at 25°C for 1 h. Experiments were performed at 25°C using 25 mM Hepes buffer containing 50 mM NaCl, pH 7.5, 0–100 μM inhibitor and 0.4% DMSO. […] The rates of CO2 hydration were determined from the slopes of raw curves of initial absorbance change. To determine the fraction of inhibited enzyme, the spontaneous CO2 hydration rate was used as a zero, while the CA-catalyzed reaction rate in the absence of the compound—as a maximum value. Each experiment consisted of 17 compound concentrations, 16 prepared by serial ligand dilution and a last one without the compound. […] The dissociation constants Kd were determined using the Morrison equation as described by Copeland [21].
Experiment [10] has as its target T3, CA IV. Kind of experiment: Stopped-flow CO2 hydration activity assay (SFA). The class given is biochemical. As to conditions: 25°C, pH 7.5, 25 nM CA IV, Morrison equation; read-out: Affinity (Kd) by SFA, CA IV. Set-up: made in house.
Experimental: as §3, §4
For experiment [11], the target named is T2, CA II. Kind of experiment: Isothermal titration calorimetry (ITC). On the technique in general: Isothermal titration calorimetry measures the heat released or taken up as one component is titrated into another.

T3 sequence (P22748 19-312): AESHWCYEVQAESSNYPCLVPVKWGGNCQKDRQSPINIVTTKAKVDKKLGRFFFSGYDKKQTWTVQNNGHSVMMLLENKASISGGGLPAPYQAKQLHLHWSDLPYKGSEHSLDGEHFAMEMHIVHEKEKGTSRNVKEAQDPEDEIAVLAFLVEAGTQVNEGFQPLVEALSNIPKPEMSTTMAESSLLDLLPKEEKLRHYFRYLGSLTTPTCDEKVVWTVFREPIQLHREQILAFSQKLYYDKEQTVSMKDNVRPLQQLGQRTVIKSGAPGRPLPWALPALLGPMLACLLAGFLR
Sequence of CA XIII (Homo sapiens, UniProt Q8N1Q1) (Q8N1Q1 whole entry): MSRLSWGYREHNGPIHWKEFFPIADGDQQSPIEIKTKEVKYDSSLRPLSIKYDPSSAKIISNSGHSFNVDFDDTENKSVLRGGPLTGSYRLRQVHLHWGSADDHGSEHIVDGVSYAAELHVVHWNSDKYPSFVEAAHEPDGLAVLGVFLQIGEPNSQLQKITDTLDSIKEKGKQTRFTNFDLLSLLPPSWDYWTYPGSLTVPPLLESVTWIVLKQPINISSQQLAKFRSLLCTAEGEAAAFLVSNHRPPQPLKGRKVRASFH
Experimental for CA IX: as §1, §2
Experimental for CA VA: as §1, §2
Experimental for CA VB: as §1, §2
Experimental for CA VII: as §1, §2
Experimental for CA XIV: as §1, §2
Experimental for human CA isoforms: as §1, §2

As a reminder, the Ki is the dissociation constant of the complex between target and ligand, obtained from inhibition or displacement. By Kd is commonly meant the constant that tells how readily two partners part at equilibrium. `NS(=O)(=O)c1cc2c(cc1C(F)(F)F)NCNS2(=O)=O` [Compound 10, hydroflumethiazide]: the inhibition constant Ki on CA XIII [1] is 15400 nM; on CA III [2], 870000 nM. In addition, the Kd at CA I is 50000 nM; at CA II [3], 17000 nM; at CA III [4], above 200000 nM; at CA IV [5] it was 24000 nM; on CA VA it was 40000 nM; on CA VB, 910 nM. Also, the equilibrium dissociation constant (Kd) at CA VI turned out to be 29000 nM; at CA VII, 17000 nM; at CA IX it was 1600 nM; on CA XII, 31000 nM; on CA XIII [6], 470 nM; on CA XIV, 3600 nM. Also, the “Binding to CA II in words” value on CA II [3] is given as “weak binders”.
On to `NS(=O)(=O)c1cc2c(cc1Cl)N=C(CSCc1ccccc1)NS2(=O)=O` [Compound 8, benzthiazide], for which the “Increase in affinity of 8 relative to 4” value in the experiment on human CA isoforms (CA II and CA XIII, Kd ratio) was “up to 1000 fold”. Further, the inhibitory constant (Ki) on CA is 16 nM. The dissociation constant (Kd) was 16.7 nM at CA II [7]; 4300 nM at CA I; 6.4 nM at CA II [3]; 4500 nM at CA III [4]; 43 nM at CA IV [5]; 90 nM at CA VA. The Kd on CA VB was determined as 6.6 nM; at CA VI, 500 nM; on CA VII, 15 nM; on CA IX, 26 nM; on CA XII it was 18 nM; on CA XIII [6], 0.64 nM. In addition, at CA XIV, the equilibrium dissociation constant (Kd) worked out at 36 nM. Moreover, the “Binding to CA II in words” value at CA II [3] is reported as “potent ones”.
Usually IC50 stands for the concentration that gives 50% inhibition. In the case of `NS(=O)(=O)c1cc2c(cc1Cl)NCNS2(=O)=O` [Compound 4, hydrochlorothiazide], the Kd is around 1000 nM at human CA isoforms (FTSA, most CA isoforms, read-out: Kd for most CA isoforms); 200000 nM at CA III [4]; 1600 nM on CA IV [5]; 2000 nM on CA VA; 200 nM at CA VB; 830 nM at CA VI. Also, the Kd at CA VII amounted to 870 nM; at CA IX, 350 nM; on CA XII, 570 nM; at CA XIII [6], 530 nM; at CA XIV it was 620 nM. Also, the inhibition constant Ki is 3880 nM at CA XIII [1] and 2350 nM on CA. In addition, in [8], the concentration for half-maximal inhibition (IC50) was 7000 nM.
Take `NS(=O)(=O)c1cc2c(cc1Cl)N=CNS2(=O)=O` [Compound 3, chlorothiazide]: the Ki at CA was 460 nM. Besides, the equilibrium dissociation constant (Kd) at CA II [9] was 310 nM; at CA IV [10] it was 300 nM; on CA II [7] it was 372 nM; at CA II [11], 250 nM; on CA II [3], 370 nM; on CA III [4] it was 15000 nM. Moreover, the dissociation constant Kd is 310 nM at CA IV [5]; 830 nM on CA VA; 48 nM at CA VB; 620 nM at CA VI; 70 nM on CA VII; 130 nM on CA IX. Moreover, the Kd at CA XII amounted to 180 nM; at CA XIII [6] it was 39 nM; on CA XIV, 250 nM.
